Results published in PMC6321525 (Molecules, 2018).
“And” between values parts separate entries of the source, which are not always exact repeats. Equal values may be shown once.

How the values were obtained:
Assay in all cases: biochemical
Type in all cases: biochemical
[1] = target: EeAChE (acetylcholinesterase from Electrophorus electricus) (Electrophorus electricus, UniProt O42275); conditions: for IC50: with standard error, 25 °C, 10 min preincubation, read-out: IC50, inhibition of EeAChE; for fold enhanced potency against EeAChE compared to donepezil: ratio of IC50 values
Method: (§1) Experiments were performed as previously described. […] All assays were performed in duplicate or triplicate.

[2] = target: T1, EfBChE (butyrylcholinesterase from equine serum) (Equus caballus, UniProt P81908); conditions: for SI, selectivity index based on IC50 values (EeAChE vs EfBChE): ratio of EfBChE to EeAChE IC50 values; for IC50: with standard error, 25 °C, 10 min preincubation, read-out: IC50, inhibition of EfBChE; for fold better than donepezil against EfBChE: ratio of IC50 values
T1 construct: EfBChE from equine serum (Equus ferus); from tissue; host or cells: equine serum
Method: as §1

BACE1 = target: T2, BACE1 (Homo sapiens, UniProt P56817); conditions: for IC50: fluorescence after 2 h, read-out: IC50, inhibition of BACE1
T2 construct: purchased Millipore-Sigma CS0010-1KT
Method: Inhibition of BACE1 was tested using the commercial kit (cat CS0010-1KT, Millipore-Sigma, St. Louis, MO, USA) following the directions accompanying the kit. […] Dilutions were originally performed in DMSO, and 2 μL added to the reaction in order to account for any moderation of activity from the vehicle. Fluorescent measurements were taken after 2 h. The resulting rates were normalized to the reaction without inhibitor. In order to get an appropriate sigmoidal fit, two additional points (400 and 1000 μM) were added to the data when needed.

[3] = target: HsAChE (acetylcholinesterase from Homo sapiens) (Homo sapiens, UniProt P22303)
Method: as §1

Chain of HsAChE (acetylcholinesterase from Homo sapiens) (P22303 32-614): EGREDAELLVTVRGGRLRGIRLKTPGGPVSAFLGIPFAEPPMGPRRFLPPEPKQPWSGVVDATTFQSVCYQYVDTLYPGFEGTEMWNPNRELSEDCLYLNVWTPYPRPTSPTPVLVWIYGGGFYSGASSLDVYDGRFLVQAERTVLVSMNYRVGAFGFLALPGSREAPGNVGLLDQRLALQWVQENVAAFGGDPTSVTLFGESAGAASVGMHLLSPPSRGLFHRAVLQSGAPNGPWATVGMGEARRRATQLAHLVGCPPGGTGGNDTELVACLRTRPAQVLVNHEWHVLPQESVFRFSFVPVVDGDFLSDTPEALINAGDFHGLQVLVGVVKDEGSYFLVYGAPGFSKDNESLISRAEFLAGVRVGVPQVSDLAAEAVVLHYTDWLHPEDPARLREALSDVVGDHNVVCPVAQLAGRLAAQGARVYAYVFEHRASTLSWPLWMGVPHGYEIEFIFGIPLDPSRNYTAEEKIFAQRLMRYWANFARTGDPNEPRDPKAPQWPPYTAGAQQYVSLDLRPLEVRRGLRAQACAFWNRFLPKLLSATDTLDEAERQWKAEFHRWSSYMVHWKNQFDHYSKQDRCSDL
T2 sequence (P56817 46-457): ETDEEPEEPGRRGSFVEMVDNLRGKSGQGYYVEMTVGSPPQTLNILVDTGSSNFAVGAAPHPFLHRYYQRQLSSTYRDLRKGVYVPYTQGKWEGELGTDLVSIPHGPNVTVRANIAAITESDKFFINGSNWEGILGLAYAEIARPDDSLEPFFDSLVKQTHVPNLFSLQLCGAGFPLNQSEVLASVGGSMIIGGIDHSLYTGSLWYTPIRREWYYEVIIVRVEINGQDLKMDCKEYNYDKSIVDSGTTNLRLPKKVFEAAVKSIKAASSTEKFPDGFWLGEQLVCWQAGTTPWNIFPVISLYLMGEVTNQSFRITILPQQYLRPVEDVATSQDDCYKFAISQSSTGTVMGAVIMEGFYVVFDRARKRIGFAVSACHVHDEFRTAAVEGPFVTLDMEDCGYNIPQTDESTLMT
Chain of EeAChE (acetylcholinesterase from Electrophorus electricus) (O42275 24-633): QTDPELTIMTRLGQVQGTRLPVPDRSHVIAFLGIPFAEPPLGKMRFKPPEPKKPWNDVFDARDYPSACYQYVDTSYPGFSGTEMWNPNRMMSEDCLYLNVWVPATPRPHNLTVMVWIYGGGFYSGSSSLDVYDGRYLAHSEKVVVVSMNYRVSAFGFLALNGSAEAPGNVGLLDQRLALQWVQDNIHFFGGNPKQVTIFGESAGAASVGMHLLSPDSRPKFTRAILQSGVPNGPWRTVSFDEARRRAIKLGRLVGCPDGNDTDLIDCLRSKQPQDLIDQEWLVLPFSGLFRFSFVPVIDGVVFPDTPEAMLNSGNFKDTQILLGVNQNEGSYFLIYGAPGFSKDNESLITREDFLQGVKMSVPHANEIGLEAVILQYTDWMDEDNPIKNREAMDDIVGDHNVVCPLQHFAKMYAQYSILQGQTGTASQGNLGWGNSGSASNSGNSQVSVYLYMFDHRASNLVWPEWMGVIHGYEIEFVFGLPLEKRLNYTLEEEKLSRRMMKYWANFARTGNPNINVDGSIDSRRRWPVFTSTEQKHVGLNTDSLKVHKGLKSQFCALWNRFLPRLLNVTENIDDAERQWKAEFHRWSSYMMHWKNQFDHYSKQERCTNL
T1 sequence (P81908 whole entry): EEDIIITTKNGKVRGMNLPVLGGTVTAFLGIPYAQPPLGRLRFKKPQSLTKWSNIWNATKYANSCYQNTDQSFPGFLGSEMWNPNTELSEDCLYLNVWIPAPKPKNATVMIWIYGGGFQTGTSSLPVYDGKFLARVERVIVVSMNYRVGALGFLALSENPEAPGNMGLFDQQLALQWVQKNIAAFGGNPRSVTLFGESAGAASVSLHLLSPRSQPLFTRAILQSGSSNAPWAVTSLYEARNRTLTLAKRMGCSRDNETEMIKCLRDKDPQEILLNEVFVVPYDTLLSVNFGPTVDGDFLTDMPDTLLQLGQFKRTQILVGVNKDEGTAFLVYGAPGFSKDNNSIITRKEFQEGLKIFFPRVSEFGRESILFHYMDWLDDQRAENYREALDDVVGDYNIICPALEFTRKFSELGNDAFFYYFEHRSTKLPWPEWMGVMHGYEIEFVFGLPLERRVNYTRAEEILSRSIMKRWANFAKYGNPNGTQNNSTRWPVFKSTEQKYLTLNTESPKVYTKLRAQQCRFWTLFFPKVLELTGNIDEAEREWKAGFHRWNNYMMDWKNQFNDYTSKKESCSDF

COc1cc2c(cc1O)C(=O)C(CC1CCN(Cc3ccccc3)CC1)C2 (centres unmarked) [Compound 7, 2-[(1-Benzylpiperidin-4-yl)methyl]-6-hydroxy-5-methoxy-2,3-dihydroinden-1-one]
IC50 [1]: 409 nM and 410 nM | SI, selectivity index based on IC50 values (EeAChE vs EfBChE) [2]: 11 | IC50 [2]: 4300 ± 400 nM

COc1cc2c(cc1OCCCN)C(=O)C(CC1CCN(Cc3ccccc3)CC1)C2 (centres unmarked) [Compound 8a, 6-[(3-Aminopropyl)oxy]-2-[(1-benzylpiperidin-4-yl)methyl]-5-methoxy-2,3-dihydroinden-1-one]
IC50 [1]: 54 ± 3 nM | SI, selectivity index based on IC50 values (EeAChE vs EfBChE) [2]: 11 | fold better than donepezil against EfBChE [2]: 4 fold | IC50 [2]: 573 nM and 570 nM | IC50 (BACE1): 95000 ± 12000 nM

COc1cc2c(cc1OCCN)C(=O)C(CC1CCN(Cc3ccccc3)CC1)C2 (centres unmarked) [Compound 8b, 6-[(3-Aminoethyl)oxy]-2-[(1-benzylpiperidin-4-yl)methyl]-5-methoxy-2,3-dihydroinden-1-one]
fold enhanced potency against EeAChE compared to donepezil [1]: 6 fold | IC50 [1]: 21 ± 3 nM | SI, selectivity index based on IC50 values (EeAChE vs EfBChE) [2]: 23 | fold better than donepezil against EfBChE [2]: 4 fold | IC50 [2]: 478 nM and 480 nM | IC50 (BACE1): ~100000 nM

CCCOc1cc2c(cc1OC)CC(CC1CCN(Cc3ccccc3)CC1)C2=O (centres unmarked) [Compound 8c, 2-[(1-Benzylpiperidin-4-yl)methyl]-5-methoxy-6-propoxy-2,3-dihydroinden-1-one]
IC50 [1]: 140 ± 20 nM | SI, selectivity index based on IC50 values (EeAChE vs EfBChE) [2]: 15 | IC50 [2]: 2050 nM and 2100 nM | BACE1 IC50 within fold of the IC50 of donepezil (BACE1): ≤ 5 fold | IC50 (BACE1): 6100 ± 100 nM

COc1cc2c(cc1OCCCl)C(=O)C(CC1CCN(Cc3ccccc3)CC1)C2 (centres unmarked) [Compound 8d, 2-[(1-Benzylpiperidin-4-yl)methyl]-6-[(chloroethyl)oxy]-5-methoxy-2,3-dihydroinden-1-one]
fold enhanced potency against EeAChE compared to donepezil [1]: 2 fold | IC50 [1]: 59 ± 4 nM | SI, selectivity index based on IC50 values (EeAChE vs EfBChE) [2]: 22 | fold better than donepezil against EfBChE [2]: 2 fold | IC50 [2]: 1300 ± 100 nM | IC50 (BACE1): ~100000 nM

COc1cc2c(cc1OCCBr)C(=O)C(CC1CCN(Cc3ccccc3)CC1)C2 (centres unmarked) [Compound 8e, 2-[(1-Benzylpiperidin-4-yl)methyl]-6-[(bromoethyl)oxy]-5-methoxy-2,3-dihydroinden-1-one]
fold enhanced potency against EeAChE compared to donepezil [1]: 3 fold | IC50 [1]: 44 ± 3 nM | SI, selectivity index based on IC50 values (EeAChE vs EfBChE) [2]: 30 | fold better than donepezil against EfBChE [2]: 2 fold | IC50 [2]: 1290 nM and 1300 nM | BACE1 IC50 within fold of the IC50 of donepezil (BACE1): ≤ 5 fold | IC50 (BACE1): 7900 ± 900 nM

COc1cc2c(cc1OCCCCBr)C(=O)C(CC1CCN(Cc3ccccc3)CC1)C2 (centres unmarked) [Compound 8f, 2-[(1-Benzylpiperidin-4-yl)methyl]-6-[(bromobutyl)oxy]-5-methoxy-2,3-dihydroinden-1-one]
IC50 [1]: 61 ± 7 nM | SI, selectivity index based on IC50 values (EeAChE vs EfBChE) [2]: 21 | IC50 [2]: 1280 nM and 1300 nM | BACE1 IC50 within fold of the IC50 of donepezil (BACE1): ≤ 5 fold | IC50 (BACE1): 7900 ± 2400 nM

COc1cc2c(cc1OCCCCCCCCCCCCBr)C(=O)C(CC1CCN(Cc3ccccc3)CC1)C2 (centres unmarked) [Compound 8g, 2-[(1-Benzylpiperidin-4-yl)methyl]-6-[(bromododecyl)oxy]-5-methoxy-2,3-dihydroinden-1-one]
IC50 [1]: 789 nM and 790 nM | SI, selectivity index based on IC50 values (EeAChE vs EfBChE) [2]: 6.6 | IC50 [2]: 5150 nM and 5200 nM

COc1cc2c(cc1OCc1ccccc1)C(=O)C(CC1CCN(Cc3ccccc3)CC1)C2 (centres unmarked) [Compound 8h]
IC50 [1]: 131 nM and 130 nM | SI, selectivity index based on IC50 values (EeAChE vs EfBChE) [2]: 5.4 | fold better than donepezil against EfBChE [2]: 3 fold | IC50 [2]: 704 nM and 700 nM | IC50 (BACE1): 58000 ± 1000 nM

COc1cc2c(cc1OCc1ccc(C)cc1)C(=O)C(CC1CCN(Cc3ccccc3)CC1)C2 (centres unmarked) [Compound 8i]
IC50 [1]: 228 nM and 230 nM | SI, selectivity index based on IC50 values (EeAChE vs EfBChE) [2]: 4.3 | IC50 [2]: 997 nM and 1000 nM | IC50 (BACE1): 58000 ± 2000 nM

COc1ccc(COc2cc3c(cc2OC)CC(CC2CCN(Cc4ccccc4)CC2)C3=O)cc1 (centres unmarked) [Compound 8j]
IC50 [1]: 125 nM and 130 nM | SI, selectivity index based on IC50 values (EeAChE vs EfBChE) [2]: 5.2 | IC50 [2]: 668 nM and 670 nM

COc1cc2c(cc1OCc1ccc([N+](=O)[O-])cc1)C(=O)C(CC1CCN(Cc3ccccc3)CC1)C2 (centres unmarked) [Compound 8k]
IC50 [1]: 126 nM and 130 nM | SI, selectivity index based on IC50 values (EeAChE vs EfBChE) [2]: 3.5 | IC50 [2]: 462 nM and 460 nM

COc1cc2c(cc1OCc1ccc(Br)cc1)C(=O)C(CC1CCN(Cc3ccccc3)CC1)C2 (centres unmarked) [Compound 8l]
IC50 [1]: 71 ± 15 nM | SI, selectivity index based on IC50 values (EeAChE vs EfBChE) [2]: 10 | IC50 [2]: 720 ± 100 nM | BACE1 IC50 within fold of the IC50 of donepezil (BACE1): ≤ 5 fold | IC50 (BACE1): 3400 ± 100 nM

COc1cc2c(cc1OCc1ccc(F)cc1)C(=O)C(CC1CCN(Cc3ccccc3)CC1)C2 (centres unmarked) [Compound 8m]
IC50 [1]: 81 ± 5 nM | SI, selectivity index based on IC50 values (EeAChE vs EfBChE) [2]: 7.0 | IC50 [2]: 570 ± 100 nM | IC50 (BACE1): ~100000 nM

COc1cc2c(cc1OCc1cccc(F)c1)C(=O)C(CC1CCN(Cc3ccccc3)CC1)C2 (centres unmarked) [Compound 8n]
IC50 [1]: 156 nM and 160 nM | SI, selectivity index based on IC50 values (EeAChE vs EfBChE) [2]: 6.0 | IC50 [2]: 959 nM and 960 nM | IC50 (BACE1): 12000 ± 3000 nM

COc1cc2c(cc1OCc1ccccc1F)C(=O)C(CC1CCN(Cc3ccccc3)CC1)C2 (centres unmarked) [Compound 8o]
IC50 [1]: 124 nM and 120 nM | SI, selectivity index based on IC50 values (EeAChE vs EfBChE) [2]: 6.3 | IC50 [2]: 764 nM and 760 nM | IC50 (BACE1): 21000 ± 4000 nM

COc1cc2c(cc1OCc1ccccc1C(F)(F)F)C(=O)C(CC1CCN(Cc3ccccc3)CC1)C2 (centres unmarked) [Compound 8p]
fold enhanced potency against EeAChE compared to donepezil [1]: 4 fold | IC50 [1]: 32 ± 10 nM | SI, selectivity index based on IC50 values (EeAChE vs EfBChE) [2]: 7.8 | fold better than donepezil against EfBChE [2]: 8 fold | IC50 [2]: 254 nM and 250 nM | IC50 (BACE1): 34000 ± 9000 nM

COc1cc2c(cc1OCc1ccc(F)cc1F)C(=O)C(CC1CCN(Cc3ccccc3)CC1)C2 (centres unmarked) [Compound 8q]
IC50 [1]: 113 nM and 110 nM | SI, selectivity index based on IC50 values (EeAChE vs EfBChE) [2]: 4.4 | fold better than donepezil against EfBChE [2]: 4 fold | IC50 [2]: 483 nM and 480 nM | IC50 (BACE1): 37000 ± 5000 nM

COc1cc2c(cc1OCc1cc(F)ccc1F)C(=O)C(CC1CCN(Cc3ccccc3)CC1)C2 (centres unmarked) [Compound 8r]
IC50 [1]: 90 ± 9 nM | SI, selectivity index based on IC50 values (EeAChE vs EfBChE) [2]: 6.7 | fold better than donepezil against EfBChE [2]: 3 fold | IC50 [2]: 601 nM and 600 nM | IC50 (BACE1): ~100000 nM

COc1cc2c(cc1OCc1c(F)cccc1F)C(=O)C(CC1CCN(Cc3ccccc3)CC1)C2 (centres unmarked) [Compound 8s]
fold enhanced potency against EeAChE compared to donepezil [1]: eight | IC50 [1]: 16 ± 1 nM | SI, selectivity index based on IC50 values (EeAChE vs EfBChE) [2]: 28 | fold better than donepezil against EfBChE [2]: 5 fold | IC50 [2]: 438 nM and 440 nM | IC50 (BACE1): 30000 ± 8000 nM

COc1cc2c(cc1OCc1ccc(Br)cc1F)C(=O)C(CC1CCN(Cc3ccccc3)CC1)C2 (centres unmarked) [Compound 8t]
fold enhanced potency against EeAChE compared to donepezil [1]: 2.2 fold | IC50 [1]: 54 ± 7 nM | SI, selectivity index based on IC50 values (EeAChE vs EfBChE) [2]: 6.9 | IC50 [2]: 372 nM and 370 nM | SI, selectivity index of EeAChE versus HsAChE, based on IC50 values [3]: 30 | IC50 ([3]; 37 °C, read-out: IC50, inhibition of HsAChE): 1.8 ± 0.6 nM | fold better inhibition of HsAChE than donepezil ([3]; ratio of IC50 values): 18 fold | IC50 (BACE1): 169000 ± 2000 nM

COc1cc2c(cc1OCc1c(F)cc(F)cc1F)C(=O)C(CC1CCN(Cc3ccccc3)CC1)C2 (centres unmarked) [Compound 8u]
fold enhanced potency against EeAChE compared to donepezil [1]: five | IC50 [1]: 27 ± 4 nM | SI, selectivity index based on IC50 values (EeAChE vs EfBChE) [2]: 7.4 | fold better than donepezil against EfBChE [2]: 10 fold | IC50 [2]: 199 nM and 200 nM | IC50 (BACE1): 91000 ± 14000 nM

COc1cc2c(cc1OCc1c(F)c(F)c(F)c(F)c1F)C(=O)C(CC1CCN(Cc3ccccc3)CC1)C2 (centres unmarked) [Compound 8v]
IC50 [1]: 172 nM and 170 nM | fold more selective for EfBChE (over EeAChE) [2]: 1.5 fold | fold better than donepezil against EfBChE [2]: 18 fold | IC50 [2]: 114 nM and 110 nM | IC50 (BACE1): 29000 ± 6000 nM
